The IC50 is the concentration that gives 50% inhibition.

Bounds are passed on as bounds.

The values below come from EP1242382B1, “TRICYCLIC PROTEIN KINASE INHIBITORS” (Wyeth, priority 1999, dated 2001).

Experiment [1] concerns Human adenocarcinoma cell line LoVo. Kind of experiment: Cell based screen for inhibitors of Raf kinase, quantitative assay. The following applies: 96 h, four days incubation. On the procedure: (§1) • Cell Lines: Human adenocarcinoma cell line LoVo which is known to be growth inhibited by low nM concentrations of a reference standard inhibitor of Ras and human adenocarcinoma cell line CaCo-2, which is known to be growth resistant to the same reference compound. • Cell Media : RPMI 1640 with 10% Fetal Bovine Serum supplemented with L-glutamine and Pennicilin/Streptomycin. • Compounds: Supplied usually as a 10 mM stock in 100% DMSO. • Normal Saline: 150 mM NaCl • Trichloroacetic Acid (TCA): 50% (w/v) in water • Sulforhodamine B (SRB): 0.4% (w/v) in 1% Acetic Acid • Tris Base: 10 mM in water
(§2) Cells are plated at 2000 cells per well for cell line LoVo and 1500 cells for cell line CaCo-2 in 96 well plates. Cells are plated in media (200 µl) and allowed to adhere overnight at 37°C. At 24 hours post plating, compounds are added directly at a volume of 0.5 µl. For the qualitative screen (compounds screened at 25 µM) compound is added directly to cells. For the quantitative screen, compound is first diluted in DMSO to generate concentrations of compound or reference standard of: 1, 5, 10 and 25 µM. It is advisable to make the dilutions in an identical 96 well plate so that compounds can be added using a multichannel micropipettor set at 0.5 µl. The cells are then incubated for four days after which the media is removed using a 12 well manifold by first tipping the plate forward at a 45 degree angle and then inserting the manifold in an upright orientation to prevent the tips of the manifold from disturbing cells at the bottom of the plate. 200 µl of normal saline is then added to each well using an 8 well multichannel pipettor, followed by the careful addition of 50 µl of 50% TCA. The plates are then incubated for 2 hours at 4°C, after which the supernatant is removed using the same technique as above and the plated washed twice with 200 µl water. The plates are then air dried and 50 µl of SRB stock solution is carefully added so that the entire bottom of each well is covered. This again can be used using an 8 well multichannel pipettor. The SRB is incubated with fixed cells for 15 minutes at room temperature after which the SRB is removed with the manifold as described above and the plates washed twice with 350 µl of 1% acetic acid per well each time. The plates are then air dried after which the bound SRB is released from protein by the addition of 200 µl of Tris base. Resolubilizing the SRB is aided by placing the plates on a rotator for 15-30 minutes. The absorbance of each well is determined at 550 or 562 nm using a microtiter plate reader.
(§3) Each compound or dilution thereof is performed in triplicate. Outliers are identified by visual inspection of the data. Each plate should have a "0" control (vehicle only).
(§4) Quantitative Assay: A standard curve is constructed by plotting the concentration of compound against the average absorbance calculated at that concentration. […] Multiple entries for a given compound indicate that it is tested multiple times.

Experiment [2] relates to human adenocarcinoma cell line CaCo-2. The experiment is described as above. The following applies: Caco-2, 96 h, four days incubation. The procedure:
as §1, §2, §3, §4

For a further experiment, the target named is T1, Raf-1 (c-Raf) (Homo sapiens, UniProt P04049).
T1 construct: Sf9 insect cell lysate containing full length 6his-tagged recombinant human c-Raf; host or cells: c-Raf: Sf9 insect cell lysate; MEK1 and MAPK: E. coli
Kind of experiment: Raf1 kinase cascade assay procedure. In kind it is biochemical. The procedure:
(Specific Activity: ~200U/ml). Human Non-active Mek-1-GST and human GST-MAP kinase (recombinant proteins produced in E. coli).
• 1. Assay Dilution Buffer (ADB): 20mM MOPS, pH 7.2, 25mM β-glycerol phosphate, 5mM EGTA, 1mM sodium orthovanadate, 1mM dithiothreitol. • 2. Magnesium/ATP Cocktail: 500µM cold ATP and 75 mM magnesium chloride in ADB. • 4. Active Kinase: Human Active c-Raf: Use at 0.4U per assay point • 5. Non-active GST-MEK1: Use at 0.1µg per assay point. • 6. Non-active GST-p42 MAP Kinase: Use at 1.0 µg per assay point
• 1. TBST - Tris (50 mM, pH 7.5), NaCl (150 mM), Tween-20 (0.05 %) • 2. Superblock (Pierce) • 3. Anti-GST Ab (Pharmacia) • 4. Anti-Phospho MAPK (Sigma) • 5. Anti-Mouse Ab / Europium conjugate (Wallac)
First Stage: c-Raf Dependent Activation of GST-MEK and GST-MAPK • 1. Add […] of ADB per assay (i.e. per well of a 96 well plate) • 2. Add 10 ml of 0.5 mM cold ATP and 75 mM magnesium chloride in ADB. • 3. Add 2 ml of c-Raf (0.4U/assay), in conjunction with 1.6ml non-active MEK1 ([…]). • 4. Add 4 ml of non-active GST-p42 MAP Kinase (1.0 mg/assay). • 5. Incubate for 60 minutes at 30°C in a shaking incubator. • 6. Transfer this mixture to an anti-GST Ab coated 96 well plate (Nunc Immunosorb plates coated o/n with a-GST, then blocked with Pierce Superblock). • 7. Incubate for 60 minutes at 30°C in a shaking incubator Wash 3X with TBST, add Anti-Phospho MAPK (Sigma) (1:3000) • 6. Incubate for 60 minutes at 30°C in a shaking incubator • 7. Wash 3X with TBST, add Anti-Mouse Ab / Europium conjugate (Wallac) (1:500) • 8. Incubate for 60 minutes at 30°C in a shaking incubator • 9. Wash 3X with TBST, Read plates in Wallac Victor model Plate Reader. • 10. Collect data analyze in Excel for single point and IC50 determinations.
Typically Raf-1 assay is run at compound concentrations from 10 µM to 1 nM in half log dilutions. (% inhibition is determined for each compound concentration).

Experiment [3] addresses T2, EGF-R Kinase (recombinant enzyme) (Homo sapiens, UniProt P00533).
T2 construct: EGFR cDNA encoding amino acids 645 - 1186 preceded by Met-Ala-(His)6; made in house; host or cells: Sf9 insect cells, recombinant baculovirus vHcEGFR52
The experiment can be described thus: Inhibition of Epidermal Growth Factor Receptor Kinase (EGF-R) using recombinant enzyme. In kind it is biochemical. The following applies: RR-SRC peptide substrate, (a) = average of two tests. On the procedure:
Representative test compounds are evaluated in a standard pharmacological test procedure to measure their ability to inhibit the phosphorylation of the tyrosine residue of a peptide substrate catalyzed by the enzyme epidermal growth factor receptor kinase. […] The enzyme used in this assay is the His-tagged cytoplasmic domain of EGFR. […] Sf9 cells in 100 mm plates are infected at a multiplicity of infection of 10 pfu/cell and cells are harvested 48 h post infection. A cytoplasmic extract is prepared using 1% Triton X-100 and applied to Ni-NTA column. After washing the column with 20 mM imidazole, HcEGFR is eluted with 250 mM imidazole (in 50 mM Na2HPO4, pH 8.0, 300 mM NaCl). Fractions collected are dialyzed against 10 mM HEPES, pH 7.0, 50 mM NaCl, 10% glycerol, 1ug/mL antipain and leupeptin and 0.1 mM Pefabloc SC. The protein is frozen in dry ice/methanol and stored -70°C.
Test compounds are made into 10 mg/mL stock solutions in 100% dimethylsulfoxide (DMSO). Prior to experiment, stock solutions are diluted to 500 uM with 100% DMSO and then serially diluted to the desired concentration with HEPES buffer (30 mM HEPES pH 7.4).
For the enzyme reaction, 10 uL of each inhibitor (at various concentrations) are added to each well of a 96-well plate. To this is added 3 uL of enzyme (1:10 dilution in 10mM HEPES, pH 7.4 for final conc. of 1:120). This is allowed to sit for 10 min on ice and is followed by the addition of 5 ul peptide (80 uM final conc.), 10ul of 4X Buffer containing 50 mM HEPES (pH 7.4), 200 mM Na3VO4, 40mM MnCl2, 80 uM ATP, 0.25 uL ^33P-ATP (>2500 Ci/mmol; Amersham) and 12 uL H2O. The reaction is allowed to run for 90 min at room temperature and is followed by spotting the entire volume onto precut P81 filter papers. The filter discs are washed 2X with 0.5% phosphoric acid and radioactivity is measured using a liquid scintillation counter.
The % inhibition of the test compound is determined for at least three different concentrations and the IC50 value is evaluated from the dose response curve. […] CPM(control) is in units of counts per minute and is a number expressing the amount of radiolabled ATP (γ-^33P) incorporated into the RR-SRC peptide substrate by the enzyme after 90 minutes at room temperature in the absence of test compound as measured by liquid scintillation counting. The CPM values are corrected for the background counts produced by ATP in the absence of the enzymatic reaction.

T2 sequence (P00533 669-1210): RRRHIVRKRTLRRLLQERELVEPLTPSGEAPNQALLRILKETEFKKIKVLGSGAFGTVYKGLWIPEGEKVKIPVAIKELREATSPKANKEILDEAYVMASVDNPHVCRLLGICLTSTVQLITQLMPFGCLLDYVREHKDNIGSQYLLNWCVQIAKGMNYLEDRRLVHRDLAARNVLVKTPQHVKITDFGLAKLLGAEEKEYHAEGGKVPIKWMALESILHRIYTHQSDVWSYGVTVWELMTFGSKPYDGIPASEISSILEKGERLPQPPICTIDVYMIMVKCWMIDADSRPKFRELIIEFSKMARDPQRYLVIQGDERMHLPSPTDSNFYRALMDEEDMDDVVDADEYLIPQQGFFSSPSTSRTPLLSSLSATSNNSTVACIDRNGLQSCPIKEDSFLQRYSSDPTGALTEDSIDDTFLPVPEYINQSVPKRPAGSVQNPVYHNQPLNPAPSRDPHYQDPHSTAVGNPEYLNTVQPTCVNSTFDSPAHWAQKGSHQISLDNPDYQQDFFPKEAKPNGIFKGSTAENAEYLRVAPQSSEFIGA
T1 sequence (P04049 whole entry): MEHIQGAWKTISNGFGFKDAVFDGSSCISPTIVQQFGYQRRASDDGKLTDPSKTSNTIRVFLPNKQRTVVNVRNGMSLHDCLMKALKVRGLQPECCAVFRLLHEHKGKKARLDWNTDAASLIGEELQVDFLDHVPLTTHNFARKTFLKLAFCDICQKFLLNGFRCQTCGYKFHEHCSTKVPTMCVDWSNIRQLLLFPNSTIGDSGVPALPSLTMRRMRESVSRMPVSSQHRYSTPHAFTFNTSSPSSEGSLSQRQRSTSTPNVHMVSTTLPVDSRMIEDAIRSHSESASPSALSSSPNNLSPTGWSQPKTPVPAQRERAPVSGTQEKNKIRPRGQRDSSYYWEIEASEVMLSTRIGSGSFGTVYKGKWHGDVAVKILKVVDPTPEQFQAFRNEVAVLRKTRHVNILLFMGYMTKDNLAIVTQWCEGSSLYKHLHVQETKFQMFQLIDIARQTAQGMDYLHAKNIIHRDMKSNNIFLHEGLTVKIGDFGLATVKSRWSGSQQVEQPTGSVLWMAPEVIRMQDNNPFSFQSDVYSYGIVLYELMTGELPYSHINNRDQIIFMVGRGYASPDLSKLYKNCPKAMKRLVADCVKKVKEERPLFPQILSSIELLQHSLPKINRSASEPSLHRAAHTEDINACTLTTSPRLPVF

For the compound `N#Cc1cnc2c(c1Nc1ccc(Oc3ccccc3)cc1)C=C1N=CN=C1C2` [Example 44, 8-(4-Phenoxyanilino)imidazo[4,5-g]quinoline-7-carbonitrile], the half-inhibitory concentration (IC50) is 850 nM in experiment [1], 9200 nM in experiment [2] and 9 nM against Raf-1 (c-Raf).
As to `COc1cc(Nc2c(C#N)cnc3cc4cc(OCCN5CCOCC5)c(OC)cc4cc23)c(C)cc1Cl` [Example 124, 4-(4-chloro-5-methoxy-2-methylanilino)-7-methoxy-8-[2-(4-morpholinyl)ethoxy]benzo[g]quinoline-3-carbonitrile], the results for the IC50 (in experiment [3]; on Raf-1 (c-Raf)) were 3000 nM and 130 nM, respectively.
In the case of `COc1cc2cc3c(Nc4ccc(Sc5nccn5C)c(Cl)c4)c(C#N)cnc3nc2cc1OCCCl` [Example 174, 8-(2-Chloroethoxy)-4-{3-chloro-4-[(1-methyl-1H-imidazol-2-yl)sulfanyl]anilino}-7-methoxybenzo[b][1,8]naphthyridine-3-carbonitrile], the IC50 in experiment [1] is 440 nM; in experiment [2], 4000 nM; on Raf-1 (c-Raf), more than 10000 nM.
For `COc1cc2cc3c(Nc4ccc(Sc5nccn5C)c(Cl)c4)c(C#N)cnc3nc2cc1OCCN1CCOCC1` [Example 176, 4-{3-Chloro-4-[(1-methyl-1H-imidazol-2-yl)sulfanyl]anilino}-7-methoxy-8-[2-(4-morpholinyl)ethoxy]benzo[b][1,8]naphthyridine-3-carbonitrile] the same measures were 3500 nM, 10000 nM and 3000 nM.
Take `COc1cc2cc3c(Nc4ccc(F)c(Cl)c4)c(C#N)cnc3cc2cc1OCCN1CCOCC1` [Example 205, 4-(3-Chloro-4-fluoroanilino)-7-methoxy-8-[2-(4-morpholinyl)ethoxy]benzo[g]quinoline-3-carbonitrile]: the IC50 in experiment [3] amounted to 250 nM.
Consider `COc1cc2cc3c(Nc4ccc(Oc5ccccc5)c(Cl)c4)c(C#N)cnc3cc2cc1OCCN1CCOCC1` [Example 213, 4-(3-Chloro-4-phenoxyphenylamino)-7-methoxy-8-(2-morpholin-4-yl-ethoxy)benzo[g]quinoline-3-carbonitrile], for which the values for the IC50 (in experiment [1]; in experiment [2]; against Raf-1 (c-Raf)) were 300 nM, 1400 nM and 27 nM, respectively.
For the compound `COc1cc2cc3ncc(C#N)c(Nc4ccc(Oc5ccccc5)c(Cl)c4)c3cc2cc1OCCN1CCOCC1` [Example 214, 4-(3-Chloro-4-phenoxyphenylamino)-8-methoxy-7-(2-morpholin-4-yl-ethoxy)benzo[g]quinoline-3-carbonitrile], the half-maximal inhibitory concentration (IC50) was found to be 250 nM in experiment [1], 8000 nM in experiment [2] and 310 nM at Raf-1 (c-Raf).
Consider `COc1cc(Nc2c(C#N)cnc3cc4cc(OCCN5CCOCC5)c(OC)cc4cc23)c(Cl)cc1C` [Example 216, 4-(2-Chloro-5-methoxy-4-methylphenylamino)-7-methoxy-8-(2-morpholin-4-yl-ethoxy)benzo[g]quinoline-3-carbonitrile], for which the IC50 in experiment [3] was 290 nM.
As to `COc1cc2cc3ncc(C#N)c(Nc4ccc(OCc5ccccc5)c(Cl)c4)c3cc2cc1OCCN1CCOCC1` [Example 217, 4-(4-Benzyloxy-3-chlorophenylamino)-8-methoxy-7-(2-morpholin-4-yl-ethoxy)benzo[g]quinoline-3-carbonitrile], the values for the IC50 (in experiment [1]; in experiment [2]; at Raf-1 (c-Raf)) were 480 nM, 4800 nM and more than 10000 nM, respectively.
